{
  "source": "paper PMC11378297",
  "about": "“Discovery and Profiling of New Multimodal Phenylglycinamide Derivatives as Potent Antiseizure and Antinociceptive Drug Candidates” (ACS Chemical Neuroscience, 2024)",
  "key": {"[1]": {"system": "glutamate and GABA concentrations in brain", "assay": "glutamate and GABA concentrations in hippocampus and cortex of PTZ-kindled mice", "assay_type": "in vivo, mouse", "from_the_text": "After behavioral tests (FST, PTZ-induced kindling), we determined the changes in glutamate and GABA concentrations in the hippocampus and cortex. Since exposure to the FST can evoke various neurochemical alterations, two additional groups were employed in this experiment, i.e., control nonkindled mice that were exposed to the FST and naïve mice. No marked differences in both glutamate and GABA concentrations in the hippocampus were observed (Figure 5A). […] We found a significant increase in glutamate concentration in the cortex of mice subjected to the FST (p < 0.05 vs naive mice). […] Given that seizures are typically accompanied by elevated extracellular glutamate levels (an excitatory neurotransmitter), a decreased glutamate concentration in the cortex of kindled animals may appear to be an unexpected outcome. It should be highlighted, however, that the concentrations of glutamate and GABA in tissue homogenates rather than dialysate were measured in brain samples acquired 24 h following the previous PTZ dose, which may have an impact on the outcomes. On the other hand, decreased glutamate levels could be caused by the up-regulation of glutamate transporters, as the expression of glutamate transporters can increase following seizures.[48] For example, an increased expression of hippocampal GLT-1 was observed 24 h after kainic acid-induced status epilepticus in mice and PTZ-induced kindling in rats.[49] Moreover, similar to our findings, Szyndler et al.([50]) found decreased glutamate concentrations, with no changes in GABA concentrations, in homogenates of the hippocampus, striatum, and prefrontal cortex of PTZ-kindled rats.\nFigure 5 Changes in glutamate and GABA concentrations in the hippocampus (A) and cortex (B). Data are shown as means + SD (n = 9–14 animals). Statistical significance was evaluated by one-way ANOVA followed by Tukey’s post hoc test: *p < 0.05, **p < 0.01, ***p < 0.001 (GraphPad Prism 8.4.3).\nGABA and glutamate concentrations were determined using liquid chromatography tandem mass spectrometry (LC-MS/MS) in the mouse prefrontal cortex and hippocampus. Toronto Research Chemicals Inc. was the source of the standards for both analytes (Toronto, ON, Canada). GABA and glutamate stock standard solutions were made in methanol and deionized water, respectively, and kept cold at 4 °C. The stock solutions were suitably diluted to create a range of solution combinations with the appropriate concentrations. Prior to analysis, a hand-held pestle and glass tube homogenizer (Potter–Elvehjem PTFE pestle and glass tube, Sigma-Aldrich, St. Louis, MO, USA) were used to homogenize mouse brains in distilled water at a ratio of 50 μL/mg. Following a 10 min centrifugation at 8000g for 10 min at 4 °C, homogenates were diluted 10 times with 0.1% formic acid in MeCN from the supernatant. Samples (10 μL) were deproteinized with 80 μL of 0.1% formic acid in MeCN by shaking for 10 min (IKA Vibrax VXR, IKA Werke GmbH & Co. KG, Staufen im Breisgau, Germany) and centrifuged for 5 min at the speed of 8000g (Eppendorf miniSpin centrifuge) after isotope-labeled GABA-d6 and glutamate-d5 (Toronto Research Chemicals Inc., Toronto, ON, Canada) were added as internal standards (10 μL at the concentration of 500 ng/mL). The autosampler vials were filled with the acquired supernatants. […]"}, "[2]": {"system": "PTZ-induced kindling, mice", "assay": "PTZ-induced kindling model", "assay_type": "in vivo, mouse", "description": "We investigated the impact of lead compound (R)-32 on PTZ-induced kindling in mice to further assess its antiseizure potential (Figure 3). […] The PTZ-induced kindling model is widely recognized as a useful method to induce chronic increase in susceptibility to epileptic seizures.\nFigure 3 Effect of repeated treatment with (R)-32 in PTZ-induced kindling model in mice. […] Data are presented as means of seizure severity (n = 10–15 animals). Statistical significance was evaluated by a mixed effects model for repeated measures followed by Tukey’s post hoc test: **p < 0.01, […] vs control group (GraphPad Prism 8.4.3).\nThe procedure was performed as described in detail in our previous studies.[88],[89] […] Seizures were induced three times a week by i.p. administration of PTZ at a subconvulsive dose of 40 mg/kg. […] The seizure severity was scored using the modified Racine’s scale. […] The locomotor activity test, the elevated plus maze test, and the FST were performed 24 h after the last PTZ injection, according to the methods described in detail elsewhere. After completion of behavioral tests, animals were sacrificed. Hippocampi and cortices were dissected from the brains, frozen, and stored at −80 °C until assay. Following each PTZ injection, the mean seizure severity scores were determined for each experimental group. A mixed effects model for repeated measurements was used for analysis, along with Tukey’s post hoc test. The percentage of fully kindled mice was compared using Fisher’s exact probability test."}, "[3]": {"assay": "PAMPA (Precoated PAMPA Plate System Gentest) passive permeability", "assay_type": "in vitro ADME"}},
  "data": [
    {"smiles": "CC(=O)N[C@@H](C(=O)N1CCN(c2cccc(OC(F)(F)F)c2)CC1)c1ccccc1", "note": "[(R)-32, (R)-N-(2-Oxo-1-phenyl-2-(4-(3-(trifluoromethoxy)phenyl)piperazin-1-yl)ethyl)acetamide]", "values": [
      {"measurement": "GABA concentration in the cortex", "setting": "[1]; 80 mg/kg, p < 0.001 vs PTZ-kindled control group", "result": "significantly decreased"},
      {"measurement": "glutamate concentration in the cortex (PTZ-kindling-induced decrease)", "setting": "[1]; 80 mg/kg, p < 0.01 vs PTZ-kindled control group", "result": "reversed this effect"},
      {"measurement": "glutamate concentration in the hippocampus", "setting": "[1]; vs nonkindled FST control group", "result": "slight decrease"},
      {"measurement": "effect on kindling development", "setting": "[2]; 20 mg/kg i.p. repeatedly every 24 h", "result": "did not significantly affect kindling development"},
      {"measurement": "effect on kindling development", "setting": "[2]; 40 mg/kg i.p. repeatedly every 24 h", "result": "did not significantly affect kindling development"},
      {"measurement": "effect on kindling progression", "setting": "[2]; 80 mg/kg i.p. repeatedly, p < 0.01 after 19th PTZ injection", "result": "slightly suppressed kindling progression"},
      {"measurement": "average seizure severity score after the first PTZ injection", "setting": "[2]; 80 mg/kg, mean ± SD", "result": "0.87 ± 0.35"},
      {"measurement": "average seizure severity score after the last PTZ injection", "setting": "[2]; 80 mg/kg, mean ± SD", "result": "2.65 ± 1.28"},
      {"measurement": "Pe relative to that of caffeine", "setting": "[3]", "result": "approximately 70%"},
      {"measurement": "Papp", "setting": "[3]; passive blood–brain barrier permeability model, read-out: permeability coefficient (Pe)", "result": 2.42, "unit": "×10⁻⁶ cm/s"}
    ]}
  ]
}
